Source: US20080171721A1, “Halogenated alkyl di- and trisaccharides, pharmaceutical formulations, diagnostic kits and methods of treatment” (priority 2007, published 2008)

Tests used:
P. aeruginosa = assay: Antimicrobial testing, time-kill with plate count; format: cell-based, Pseudomonas aeruginosa; conditions: antimicrobial if greater than 5 log reduction
Method: (§1) The preferred embodiment was tested for antimicrobial activity using the following procedure.
(§2) A 1% solution of Compound 3 was prepared in DPBS (Dulbecco's phosphate buffered saline). A 25 ml mixture of the 1% Compound 3 and PBS (phosphate buffered saline, pH 7.2 was prepared by mixing 5 ml of the 1% Compound 3 solution and 20 ml of the PBS.
(§3) A 10 ml aliquot of the above mixture was placed into each of two sterile test tubes. One test tube was inoculated with 0.1 ml of S. aureus and the other with 0.1 ml of P. aeruginosa, such that there was a final concentration of 10^6 colony-forming units (CFU)/0.1 mls.
(§4) A various time points, 1.0 ml of each inoculated test sample were removed, diluted 10× with 0.45% saline and plated on trypticase soy agar (TSA) plates.
(§5) The plates were incubated at 30-35° C. for not less than 24 hours. Concentration of CFU in the samples taken at each time point were enumerated by standard methods. The log reduction was calculated for each time period and organism. The log reduction was calculated using the formula: Log reduction=Log inoculums verification−sample log recovery.

S. aureus = assay: Antimicrobial testing, time-kill with plate count; format: cell-based, Staphylococcus aureus; conditions: antimicrobial if greater than 5 log reduction
Method: as §1, §2, §3, §4, §5

With CCCCCCCCCCCC(=O)OCC1O[C@H](O[C@@]2(CCl)O[C@H](CCl)C(O)C2O)C(O)C(O)[C@H]1Cl (stereo in doubt) [Compound 3, 1′,6′-Dichloro-1′,6′-dideoxy-β-D-fructofuranosyl-4-chloro-4-deoxy-6-O-monododecanoate-α-galactopyranoside] the antimicrobial effect (P. aeruginosa) was “not P. aeruginosa” and the antimicrobial effect (S. aureus) was “has antimicrobial effect against S. aureus”.
